From ChEMBL document CHEMBL1201862, “PubChem BioAssay data set” (2004)
Active and inactive are the calls of the source.

How the values were obtained:
[1] = P. falciparum Dd2 growth inhibitors, dose response, SYBR Green, cherry-picked samples (AID 1159567); type: functional, cell-based
[2] = target: T1, Corticotropin-releasing factor receptor 2/Corticotropin-releasing factor-binding protein (Homo sapiens, UniProt P24387+Q13324); assay: activators of CRF receptor 2 with binding protein – uHTS hits, confirmation (AID 602473); type: functional; settings: read-out: EC50_Mean
T1 sequence (Q13324 whole entry): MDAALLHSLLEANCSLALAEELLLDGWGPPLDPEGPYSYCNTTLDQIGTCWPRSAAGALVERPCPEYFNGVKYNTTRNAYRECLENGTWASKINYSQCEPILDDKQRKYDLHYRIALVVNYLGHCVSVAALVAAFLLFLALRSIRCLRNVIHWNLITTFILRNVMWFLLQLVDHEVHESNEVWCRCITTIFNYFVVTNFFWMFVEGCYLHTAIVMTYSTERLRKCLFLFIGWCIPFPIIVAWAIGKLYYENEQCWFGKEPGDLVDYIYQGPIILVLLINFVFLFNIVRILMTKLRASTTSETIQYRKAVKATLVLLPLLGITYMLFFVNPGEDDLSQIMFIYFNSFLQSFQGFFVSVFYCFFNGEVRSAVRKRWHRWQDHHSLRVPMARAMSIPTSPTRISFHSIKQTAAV
T1 sequence (P24387 whole entry): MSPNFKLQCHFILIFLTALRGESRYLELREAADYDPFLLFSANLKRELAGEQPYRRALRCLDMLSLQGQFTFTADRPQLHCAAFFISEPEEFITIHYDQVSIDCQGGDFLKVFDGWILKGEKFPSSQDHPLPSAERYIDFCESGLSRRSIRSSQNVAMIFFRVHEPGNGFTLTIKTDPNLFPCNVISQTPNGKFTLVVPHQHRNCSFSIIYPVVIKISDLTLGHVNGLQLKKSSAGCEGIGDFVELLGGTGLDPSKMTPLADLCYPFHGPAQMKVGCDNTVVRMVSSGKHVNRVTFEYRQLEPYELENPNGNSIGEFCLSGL

[3] = target: T1, Corticotropin-releasing factor receptor 2/Corticotropin-releasing factor-binding protein; assay: Dose Response confirmation of uHTS hits for small molecule antagonists of the CRF-binding protein and CRF-R2 receptor complex.; type: functional; settings: read-out: IC50_Mean
Streptococcus = assay: Group A Streptococcus viability loss, dose response, counter-screen for streptokinase expression inhibitor project, luminescence, BacTiterGlo (AID 1915); type: functional, organism-based;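 further: potency for reduction of bacterial viability or growth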
[4] = target: T2, Heat shock factor protein 1 (Mus musculus, UniProt P38532); assay: HSF1 potentiators in luciferase reporter cells, confirmation, cell-based, NIH3T3, luminescence, dose retest (AID 435004); type: functional;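 further: stress induced by proteasome inhibitor MG132 added 30 min after compound; luciferase reporter driven by HSF1 response element in NIH3T3 cells; actives raise luminescence as potentiators of the MG132 stress response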
T2 sequence (P38532 whole entry): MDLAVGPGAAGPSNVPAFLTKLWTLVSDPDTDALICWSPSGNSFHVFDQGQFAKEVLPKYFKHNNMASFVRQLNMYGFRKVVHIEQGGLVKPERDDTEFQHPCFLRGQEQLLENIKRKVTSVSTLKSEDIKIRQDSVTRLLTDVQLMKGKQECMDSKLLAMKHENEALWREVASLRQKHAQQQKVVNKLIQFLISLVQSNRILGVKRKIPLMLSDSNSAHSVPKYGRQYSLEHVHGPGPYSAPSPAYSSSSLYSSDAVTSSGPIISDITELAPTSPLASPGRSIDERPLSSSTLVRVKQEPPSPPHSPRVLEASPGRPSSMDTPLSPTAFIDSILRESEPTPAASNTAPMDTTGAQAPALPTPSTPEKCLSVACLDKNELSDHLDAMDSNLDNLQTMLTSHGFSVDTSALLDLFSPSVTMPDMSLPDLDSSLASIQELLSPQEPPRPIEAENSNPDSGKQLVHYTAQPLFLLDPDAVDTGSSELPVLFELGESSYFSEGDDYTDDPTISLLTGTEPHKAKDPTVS

[5] = test system: Streptococcus sp. 'group A'; assay: growth inhibition of control SK(-) GAS strain, dose response, counter-screen for streptokinase expression inhibitor project, luminescence, kanamycin, BacTiterGlo, confirmation (AID 1900); type: functional, organism-based
Streptokinase A = target: T3, Streptokinase A (Streptococcus pyogenes serotype M1, UniProt P10520); assay: S. pyogenes streptokinase expression inhibitors, potency, dose response, plasminogen activation absorbance, OD405 (AID 1914); type: functional, Streptococcus pyogenes M1 GAS;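 further: secreted streptokinase activity via plasminogen activation per viability signal from cell pellet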
T3 sequence (P10520 whole entry): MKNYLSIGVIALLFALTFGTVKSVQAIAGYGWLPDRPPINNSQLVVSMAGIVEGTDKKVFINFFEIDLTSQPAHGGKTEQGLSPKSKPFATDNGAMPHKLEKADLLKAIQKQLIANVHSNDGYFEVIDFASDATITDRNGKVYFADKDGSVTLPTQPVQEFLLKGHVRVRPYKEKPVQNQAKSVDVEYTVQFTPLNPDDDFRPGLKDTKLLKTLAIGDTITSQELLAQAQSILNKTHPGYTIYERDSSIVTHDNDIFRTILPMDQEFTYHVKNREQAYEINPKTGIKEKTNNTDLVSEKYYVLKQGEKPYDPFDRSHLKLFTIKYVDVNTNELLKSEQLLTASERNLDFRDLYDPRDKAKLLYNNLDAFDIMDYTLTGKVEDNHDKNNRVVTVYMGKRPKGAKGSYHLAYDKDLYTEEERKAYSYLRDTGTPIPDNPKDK

[6] = HEp-2 cell cytotoxicity, dose response, cytotoxicity control for RSV inhibitor project, HTS (AID 2410); type: functional; settings: human respiratory syncytial virus
[7] = NIH-3T3 fibroblast cytotoxicity, dose response, cytotoxicity control, cell-based, fluorescence, Alamar Blue, secondary assay (AID 2327); type: functional;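 further: NIH-3T3 mouse fibroblasts cultured with fluconazole at 8 µg/mL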
[8] = target: T4, Rac GTPase-activating protein 1 (Homo sapiens, UniProt Q9H0H5); assay: MgcRacGAP GTPase-activating activity inhibitors, confirmation, biochemical, ADP Hunter fluorescence, primary and confirmatory (AID 624330); type: functional
T4 sequence (Q9H0H5 whole entry): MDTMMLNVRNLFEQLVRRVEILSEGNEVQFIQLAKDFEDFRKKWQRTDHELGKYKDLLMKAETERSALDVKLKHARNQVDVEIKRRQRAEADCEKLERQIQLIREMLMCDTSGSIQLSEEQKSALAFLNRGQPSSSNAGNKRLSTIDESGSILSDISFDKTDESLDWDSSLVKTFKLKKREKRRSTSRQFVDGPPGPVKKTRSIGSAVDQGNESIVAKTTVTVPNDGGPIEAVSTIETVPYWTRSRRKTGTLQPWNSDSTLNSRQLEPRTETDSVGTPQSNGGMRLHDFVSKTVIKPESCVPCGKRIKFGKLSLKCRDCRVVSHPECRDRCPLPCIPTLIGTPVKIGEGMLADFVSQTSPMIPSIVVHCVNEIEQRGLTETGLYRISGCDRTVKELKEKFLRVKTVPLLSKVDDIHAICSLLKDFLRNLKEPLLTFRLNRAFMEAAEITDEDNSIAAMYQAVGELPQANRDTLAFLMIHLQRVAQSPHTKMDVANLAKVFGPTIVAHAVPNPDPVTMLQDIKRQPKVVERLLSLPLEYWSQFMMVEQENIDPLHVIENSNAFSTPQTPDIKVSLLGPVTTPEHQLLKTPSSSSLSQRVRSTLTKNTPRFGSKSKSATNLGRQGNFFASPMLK

Cytochrome P450 1A2 = target: T5, Cytochrome P450 1A2 (Homo sapiens, UniProt P05177);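 further: PubChem cytochrome P450 panel assay, CYP1A2 panel member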
T5 sequence (P05177 whole entry): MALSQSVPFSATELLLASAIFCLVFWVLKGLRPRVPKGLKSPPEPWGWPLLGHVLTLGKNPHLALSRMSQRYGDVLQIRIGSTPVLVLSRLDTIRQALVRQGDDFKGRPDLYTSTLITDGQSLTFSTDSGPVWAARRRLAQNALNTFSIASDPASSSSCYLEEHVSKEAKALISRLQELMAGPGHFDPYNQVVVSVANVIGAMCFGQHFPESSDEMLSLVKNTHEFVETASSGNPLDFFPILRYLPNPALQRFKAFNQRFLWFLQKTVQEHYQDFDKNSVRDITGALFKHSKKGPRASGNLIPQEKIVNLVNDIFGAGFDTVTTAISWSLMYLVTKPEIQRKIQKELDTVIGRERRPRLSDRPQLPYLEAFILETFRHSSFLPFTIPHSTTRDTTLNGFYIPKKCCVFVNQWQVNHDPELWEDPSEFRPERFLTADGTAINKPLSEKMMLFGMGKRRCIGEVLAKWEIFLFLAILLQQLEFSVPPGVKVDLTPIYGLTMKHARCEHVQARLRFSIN

OC[C@H]1[C@@H](c2ccc(-c3cccnc3)cc2)[C@H]2CN(CC3CC3)CCCCN21
AC50 [1]: 6.52 µM (active)

COc1cccc(CN2[C@@H](CO)[C@H](c3ccccc3)C23CN(C(=O)C2CCOCC2)C3)c1
AC50 [1]: 7.03 µM (active)

O=C(O)CC(SCC(=O)Nc1ccc(Br)cc1)C(=O)O (centres undefined)
EC50 [2]: > 53 µM (inactive) | IC50 [3]: > 47.1 µM (inactive)

CCC1C(=NO)C(CC)C(c2ccccc2)NC1c1ccccc1 (centres undefined)
EC50 (Streptococcus): 11.8 µM (active) | EC50 [4]: > 260 µM (inactive) | EC50 [5]: 4.07 µM (active) | EC50 (Streptokinase A): 13.3 µM (active)

Cc1cccc(NC(=O)c2[nH]cnc2C(=O)N[C@@H](Cc2ccccc2)C(=O)OCc2ccccc2)c1
CC50 [6]: 46.3 µM (active)

CC(C)NC(=O)N1CCCCN2[C@H](CO)[C@@H](c3ccc(C#C[C@H](C)O)cc3)[C@@H]2C1
AC50 [1]: 19.5 µM (active)

c1ccc(-c2cc(-c3ccc(N4CCOCC4)cc3)nc3ccccc23)cc1
CC50 [6]: > 50 µM (active)

O=[N+]([O-])c1ccc(-c2csc(Nc3ccccc3)[n+]2Cc2ccccc2)cc1
EC50 [4]: 131 µM (active)

COc1ccccc1C(=O)NCCCNC(=O)c1ccccn1
EC50 [4]: > 260 µM (inactive)

Cc1ccc(Cn2nnc3c(O)nc(C4CCN(S(=O)(=O)c5ccc(C)cc5)CC4)nc32)cc1
CC50 [6]: 13.6 µM (active) | EC50 [7]: > 150 µM (inactive)

CO[C@H]1CN(C)C(=O)c2ccc(NC(=O)c3cccc(Oc4ccccc4)c3)cc2OC[C@@H](C)NC[C@H]1C
AC50 [1]: 7.72 µM (active)

Cc1ccc(-c2cnc3cc(C)nn3c2)cc1
EC50 [4]: > 260 µM (inactive)

CCn1cc(C2=NC(c3ccccc3)CO2)c2ccccc21 (centres undefined)
CC50 [6]: 14.8 µM (active)

Cc1ccccc1C(=O)Nc1ccc(N2CCCC2)cc1
IC50 [8]: 79.7 µM (active)

O=C(NNc1cccc(Cl)n1)Nc1ccc(Cl)cc1
EC50 [4]: > 260 µM (inactive)

Cc1ccccc1[C@@]1(C)ON(c2ccccc2C(F)(F)F)C1=O
CC50 [6]: 21.9 µM (active)

CCOc1ccc(CNC(=O)c2cccc(NC(=O)C3=C(C)OCCS3)c2)cc1
EC50 [4]: > 260 µM (inactive)

Cc1cccc(NC(=O)CCc2c(C)nn(-c3ccc(N4CCCCC4)nn3)c2C)c1
EC50 [4]: > 260 µM (inactive)

CNC[C@H]1Oc2ncc(-c3ccc(OC)cc3)cc2C(=O)N([C@H](C)CO)C[C@H]1C
AC50 [1]: 7.75 µM (active)

O=C(c1ccc(N2CCN(C3CC(=O)N(Cc4cccs4)C3=O)CC2)cc1)c1cccnc1 (centres undefined)
CC50 [6]: 24.4 µM (active)

CN(C)c1ccc(C=Cc2cnccn2)cc1
IC50 [8]: 38.6 µM (active)

CCC(=O)N1CCC2(CC1)CN(Cc1ccc(Cl)cc1)[C@H](CO)c1[nH]c3cc(OC)ccc3c12
AC50 [1]: 3.07 µM (active)

CCOC(=O)N1CCC(/N=c2\c(O)c(O)\c2=N/c2cccc(CC)c2)CC1
CC50 [6]: 39.3 µM (active)

COC(=O)/C(C#N)=C/c1c(N2CCCCCC2)nc2c(C)cccn2c1=O
EC50 [4]: > 260 µM (inactive)

COc1cc(/C=C/C(C)=NNc2ccccc2)ccc1O
IC50 [8]: 51.9 µM (active)

CCC(=O)N1CC2(C1)CN(Cc1cccc(Cl)c1)[C@H](CO)c1c2c2ccc(OC)cc2n1C
AC50 [1]: 10.5 µM (active)

Cc1ccc(C)c(-c2cc(C(=O)Nc3sc(C)c(C)c3C(N)=O)c3ccccc3n2)c1
CC50 [6]: 9.97 µM (active) | EC50 (Streptococcus): > 150 µM (not active) | AC50 (Cytochrome P450 1A2): 3.16 µM (inconclusive) | EC50 [5]: 2.81 µM (active) | EC50 (Streptokinase A): 4.64 µM (active)

CN(C)CCCn1c(SCc2ccc(Cl)cc2)nnc1-c1ccncc1
IC50 [8]: 121 µM (active)

C[C@H](CCC(=O)O)[C@H]1CC[C@H]2[C@@H]3CC[C@@H]4CC(=O)CC[C@]4(C)[C@H]3CC(=O)[C@]12C
EC50 [4]: > 260 µM (inactive)

O=C(Cn1cc(C(F)(F)F)ccc1=O)N/N=C/c1ccc(O)cc1
IC50 [8]: 95.1 µM (active)

Cc1ccc(-n2nc3c(=O)n(CCCC(=O)NCCc4ccccc4C)nc(C)c3c2C)cc1
CC50 [6]: > 50 µM (active)

COc1cccc(CN2[C@@H](CO)[C@H](c3ccccc3)C23CN(C(=O)C2CCCC2)C3)c1
AC50 [1]: 5.77 µM (active)

Cc1ccc2c(c1)/C(=C/c1ccc(F)cc1)C(=O)N2
EC50 [4]: > 260 µM (inactive)

Cc1ccc(OCC(=O)N2CCN(CC3CC4C=CC3C4)CC2)cc1 (centres undefined)
IC50 [8]: 293 µM (active)

O=C(CCn1c(=O)oc2ccccc21)Nc1ccccc1
EC50 [4]: > 260 µM (inactive)

COc1ccc2c3c([nH]c2c1)[C@@H](CO)N(Cc1ccccc1Cl)CC31CCN(C(=O)C2CC2)CC1
AC50 [1]: 5.82 µM (active)

O=C(Nc1ccccn1)c1ccc2ccccc2c1O
IC50 [8]: 73 µM (active)

CCOc1cc(CNc2ccc3c(c2)OCCO3)cc(Br)c1OCC(N)=O
IC50 [8]: 99.3 µM (active)

CCOC(=O)c1c(C)[nH]c(C(=O)CN2CCN(CC)CC2)c1C
IC50 [8]: 60.6 µM (active)

CC(c1ccc(F)cc1)n1c(S)nnc1Cn1ncc2ccccc2c1=O (centres undefined)
EC50 [4]: > 260 µM (inactive)
